Test results from patent US11519922B2, “Methods for identifying risk of chemotherapy-induced cardiotoxicity and targeted medical intervention” (Detroit R&D, Inc., priority 2018, dated 2022).

Assays:
sEH enzyme in H9c2 cells = target: T1, sEH enzyme in H9c2 cells (Rattus norvegicus, UniProt P80299); test: 14,15-DHET formation from added 14,15-EET by H9c2 cells; format: cell-based
T1 construct: host or cells: H9c2 rat cardiomyocytes
T1 sequence (P80299 1-554): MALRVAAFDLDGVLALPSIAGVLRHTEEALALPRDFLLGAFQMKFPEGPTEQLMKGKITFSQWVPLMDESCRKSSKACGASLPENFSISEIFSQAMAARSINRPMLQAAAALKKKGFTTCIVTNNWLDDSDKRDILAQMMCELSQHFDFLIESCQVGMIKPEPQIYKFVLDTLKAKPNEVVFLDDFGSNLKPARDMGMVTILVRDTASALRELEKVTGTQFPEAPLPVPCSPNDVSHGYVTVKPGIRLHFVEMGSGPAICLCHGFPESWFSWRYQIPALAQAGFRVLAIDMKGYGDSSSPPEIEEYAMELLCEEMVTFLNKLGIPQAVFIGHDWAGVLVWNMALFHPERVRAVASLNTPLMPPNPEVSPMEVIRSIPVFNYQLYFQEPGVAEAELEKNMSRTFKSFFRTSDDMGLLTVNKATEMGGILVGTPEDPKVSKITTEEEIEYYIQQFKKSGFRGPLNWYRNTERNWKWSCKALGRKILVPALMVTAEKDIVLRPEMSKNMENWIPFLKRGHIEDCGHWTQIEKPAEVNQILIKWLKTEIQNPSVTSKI
Description: Expression of sEH enzyme in the cells was confirmed by detection of increased 14,15-DHET formation activity after 1 μM EET (substrate) treatment.
sEH enzyme converts 14,15-EET to 14,15-DHET, so differential levels of 14,15-DHET will reflect sEH activity. After addition of 1 μM 14,15-EET to H9c2 cells, ˜250 ng/ml 14,15-DHET was formed in cell media in 30 min and 4.5-fold higher level of 14,15-DHET was formed when the EET level was increased from 1 μM to 5 μM, verifying EET-dose-dependent 14,15-DHET formation by rat H9c2 cardiomyocyte cells.

recombinant sEH = target: T2, recombinant sEH (Homo sapiens, UniProt P34913); test: Inhibition of EET-dependent sEH activity, reconstituted system; format: biochemical
T2 sequence (P34913 1-555): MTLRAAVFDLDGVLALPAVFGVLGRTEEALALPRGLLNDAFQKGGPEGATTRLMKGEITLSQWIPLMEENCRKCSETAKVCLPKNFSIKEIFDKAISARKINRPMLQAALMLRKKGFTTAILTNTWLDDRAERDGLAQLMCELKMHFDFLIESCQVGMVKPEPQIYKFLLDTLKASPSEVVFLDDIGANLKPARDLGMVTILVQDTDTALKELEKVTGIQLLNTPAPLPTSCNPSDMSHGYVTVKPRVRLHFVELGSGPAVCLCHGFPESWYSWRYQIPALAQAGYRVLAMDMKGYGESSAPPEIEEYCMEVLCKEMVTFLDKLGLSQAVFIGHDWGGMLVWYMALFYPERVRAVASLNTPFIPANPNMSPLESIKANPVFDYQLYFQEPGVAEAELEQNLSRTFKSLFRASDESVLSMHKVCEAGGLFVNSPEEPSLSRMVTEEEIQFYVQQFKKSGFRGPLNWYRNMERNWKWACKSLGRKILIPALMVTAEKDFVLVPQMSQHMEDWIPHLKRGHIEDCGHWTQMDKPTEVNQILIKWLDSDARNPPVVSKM

[1] = target: T3, sEH in human kidney cells (ACHN) (Homo sapiens, UniProt P34913); test: Inhibition of EET-dependent sEH activity in kidney cells; format: cell-based; details: EET 1 μM
T3 construct: recombinant sEH and human kidney cells (ACHN); endogenous in cells; host or cells: ACHN human kidney cells
T3 sequence (P34913 1-555): T2 sequence (P34913 1-555)

## CCCCCC1OC1C/C=C\C/C=C\C/C=C\CCCC(=O)O (centres unmarked) [14,15-EET]
sEH enzyme in H9c2 cells; 1 μM 14,15-EET, 30 min
  14,15-DHET formed in cell media: ~250 ng/mL
sEH enzyme in H9c2 cells; EET level increased from 1 μM to 5 μM
  higher level of 14,15-DHET formed: 4.5 fold

## C=CCc1ccc(O)c(-c2ccc(O)c(CC=C)c2)c1 [Honokiol]
Recombinant sEH; EET 1 μM, reconstituted system with recombinant sEH
  EET-dependent sEH activity: inhibited
Recombinant sEH; recombinant sEH and ACHN cells
  inhibitor of the sEH activity (overall statement): potent inhibitors
[1]
  EET-dependent sEH activity: inhibited
